# Test results as given in US12195490B2, “STRAD-binding agents and uses thereof” (The Regents of the University of California, priority 2020, dated 2025).
# Tests used:
# LKB1 [1] = molecular target: T1, LKB1 (Homo sapiens, UniProt Q15831+Q7RTN6); experiment: LKB1 kinase assay with recombinant LKB1 (LKB1 in vitro activation); format: biochemical
# T1 sequence (Q15831 1-433): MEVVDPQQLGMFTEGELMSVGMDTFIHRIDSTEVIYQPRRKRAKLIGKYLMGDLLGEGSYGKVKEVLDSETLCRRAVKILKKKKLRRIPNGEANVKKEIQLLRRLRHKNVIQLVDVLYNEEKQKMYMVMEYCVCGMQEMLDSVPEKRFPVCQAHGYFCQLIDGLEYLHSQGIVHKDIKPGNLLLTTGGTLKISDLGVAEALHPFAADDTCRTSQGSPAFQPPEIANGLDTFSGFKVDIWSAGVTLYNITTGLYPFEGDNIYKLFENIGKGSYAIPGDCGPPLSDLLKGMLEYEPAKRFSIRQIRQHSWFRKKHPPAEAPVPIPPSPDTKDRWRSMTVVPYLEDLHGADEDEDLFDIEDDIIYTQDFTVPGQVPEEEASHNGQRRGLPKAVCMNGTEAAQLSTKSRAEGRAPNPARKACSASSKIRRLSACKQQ
# T1 sequence (Q7RTN6 1-431): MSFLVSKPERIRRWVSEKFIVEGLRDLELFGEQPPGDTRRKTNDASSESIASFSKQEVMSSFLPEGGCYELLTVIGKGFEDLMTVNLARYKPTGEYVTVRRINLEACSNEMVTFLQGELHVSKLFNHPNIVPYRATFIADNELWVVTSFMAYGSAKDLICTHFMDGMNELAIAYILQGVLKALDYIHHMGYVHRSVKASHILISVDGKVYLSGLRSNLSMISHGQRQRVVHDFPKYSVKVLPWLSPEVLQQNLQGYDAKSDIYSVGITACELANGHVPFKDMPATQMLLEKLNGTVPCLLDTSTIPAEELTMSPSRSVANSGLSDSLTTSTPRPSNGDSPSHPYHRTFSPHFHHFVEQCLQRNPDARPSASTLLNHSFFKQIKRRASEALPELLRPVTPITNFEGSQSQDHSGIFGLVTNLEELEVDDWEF
# T1 sequence (Q9Y376 1-341 partner): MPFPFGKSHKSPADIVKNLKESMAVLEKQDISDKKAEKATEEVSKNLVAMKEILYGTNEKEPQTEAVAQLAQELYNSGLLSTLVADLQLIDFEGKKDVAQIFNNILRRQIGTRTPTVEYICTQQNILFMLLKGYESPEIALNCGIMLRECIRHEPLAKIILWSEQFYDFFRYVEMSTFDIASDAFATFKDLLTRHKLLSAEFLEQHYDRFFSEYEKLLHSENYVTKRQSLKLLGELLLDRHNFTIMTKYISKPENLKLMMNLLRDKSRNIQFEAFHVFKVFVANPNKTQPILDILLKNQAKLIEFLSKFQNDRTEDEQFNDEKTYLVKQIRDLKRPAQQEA
# Text: Screening in human cancer cell lines has identified cell lines responsive to LKB1 activation and predictive biomarkers for compound development have been determined. Installation of a novel polar functionality specifically designed to target STRAD's unique phosphate-binding residues led to the identification of compound SU-329 which is currently progressing through efficacy models evaluating tumor growth inhibition. The terms SU-329 and SU20668-0329-01 refer to the same compound.
# Small Molecule Activation of the LKB1 Tumor Suppressor. Cancer treatment has been considerably advanced by the relatively recent development of small molecules capable of inhibiting oncogenic kinase signaling, but exogenous enhancement of tumor suppressive signaling remains elusive. Here, we sought to design small molecules capable of activating the tumor suppressor kinase LKB1. Designing compounds capable of increasing kinase activity has been more structurally challenging than those aimed at inhibiting them: apart from the ATP-binding pocket, there is rarely a site that would be conducive to binding a small molecule. Unlike most protein kinases, LKB1 signals as part of an obligate trimer consisting of itself, a scaffolding protein (MO25), and a pseudokinase (STRAD). As part of its mechanism of activation, LKB1 must bind to an ATP-bound STRAD to take on its active kinase conformation. […]
# ACHN cell line = experiment: Drug screen of the SelleckChem kinase inhibitor library with and without SU-329, Cell-Titer Glo after 5 days; format: cell-based; conditions: kinase inhibitors 200 nM with and without 5 μM SU-329
# Method: FIG. 8. Drug screen identifies signaling pathways that affect the impact of LKB1 activation. Drug screen of the SelleckChem kinase inhibitor library was performed in the ACHN cell line. Sensitivity to kinase inhibitors used at 200 nM with and without 5 μM of SU-329 was measured after 5 days with Cell-Titer Glo. […] The terms SU-329 and SU20668-0329-01 refer to the same compound.
# [2] = tested on: most sensitive cancer cell line; experiment: cell activity: CTG anti-proliferation in most sensitive cancer cell line; format: cell-based; conditions: APA analogs
# LKB1 [3] = molecular target: T1, LKB1; experiment: in vitro LKB1 functional activity; format: biochemical; conditions: APA analogs
SMILES,LKB1 in vitro activation (LKB1 [1]),response of LKB1 stimulation under inhibition of GSK-3 (ACHN cell line),response of LKB1 stimulation under inhibition of mTOR and components of the PI3K (ACHN cell line),IC50 [2],LKB1 % Act. Increase (LKB1 [3])
COP(=O)(CS(=O)(=O)c1ccc(NC(=O)c2nc(-c3ccc(C)cc3)cnc2N)cc1)OC [SU-329],Single digit micro-molar,reduced the response of LKB1 stimulation,attenuated the response of LKB1 stimulation,,
"CO[P@@](C)(=O)CS(=O)(=O)c1ccc(NC(=O)c2nc(-c3ccc(C)cc3)cnc2N)cc1 [SU20668-0519, (R)-methyl (4-(3-amino-6-p-tolylpyrazine-2-carboxamido)phenylsulfonyl)methyl(methyl)phosphinate]",,,,< 3 µM,A (A=>4000%)
"COP(=O)(CS(=O)(=O)c1ccc(NC(=O)c2nc(-c3ccc(C)cc3)cnc2N)cc1)OC [SU20668-0329, dimethyl (4-(3-amino-6-p-tolylpyrazine-2-carboxamido)phenylsulfonyl)methylphosphonate]",,,,< 3 µM,A (A=>4000%)
"Cc1ccc(-c2cnc(N)c(C(=O)Nc3ccc(S(N)(=O)=O)cc3)n2)cc1 [SU20668-0197, 3-amino-N-(4-sulfamoylphenyl)-6-p-tolylpyrazine-2-carboxamide]",,,,< 3 µM,B (B=399-2000%)
"CCO[P@](=O)(CC)CS(=O)(=O)c1ccc(NC(=O)c2nc(-c3ccc(C)cc3)cnc2N)cc1 [SU20668-0521, (R)-ethyl (4-(3-amino-6-p-tolylpyrazine-2-carboxamido)phenylsulfonyl)methyl(ethyl)phosphinate]",,,,< 3 µM,A (A=>4000%)
"CCOP(C)(=O)CS(=O)(=O)c1ccc(NC(=O)c2nc(-c3ccc(C)cc3)cnc2N)cc1 (centres unmarked) [SU20668-0472, ethyl (4-(3-amino-6-p-tolylpyrazine-2-carboxamido)phenylsulfonyl)methyl(methyl)phosphinate]",,,,< 3 µM,A (A=>4000%)
"CC(=O)NS(=O)(=O)c1ccc(NC(=O)c2nc(-c3cc(F)ccc3C#N)cnc2N)cc1 [SU20668-0371, N-(4-(N-acetylsulfamoyl)phenyl)-3-amino-6-(2-cyano-5-fluorophenyl)pyrazine-2-carboxamide]",,,,3 to 50 µM,A (A=>4000%)
"Cc1ccc(-c2cnc(N)c(C(=O)Nc3ccc(S(=O)(=O)NC4COC4)cc3)n2)cc1 [SU20668-0468, 3-amino-N-(4-(N-oxetan-3-ylsulfamoyl)phenyl)-6-p-tolylpyrazine-2-carboxamide]",,,,< 3 µM,C (C=199-1000%)
